Data: PubChem BioAssay (NCI)
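Method: 48-hour compound exposure of cells in 96-well plates, five concentrations, linear interpolation of endpoints. GI50 = concentration required for 50% inhibition of growth. At the TGI there is no net growth.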

Key:
Assay in all cases: DTP human tumour cell line panel, 48 h
786-0 renal = tested on: 786-0 renal
A498 renal = tested on: A498 renal
A549 NSCLC = tested on: A549 NSCLC
ACHN renal = tested on: ACHN renal
BT-549 breast = tested on: BT-549 breast
CAKI-1 renal = tested on: CAKI-1 renal
CCRF-CEM leukemia = tested on: CCRF-CEM leukemia
COLO 205 colon = tested on: COLO 205 colon
DU-145 prostate = tested on: DU-145 prostate
EKVX NSCLC = tested on: EKVX NSCLC
HCC-2998 colon = tested on: HCC-2998 colon
HCT-116 colon = tested on: HCT-116 colon
HCT-15 colon = tested on: HCT-15 colon
HL-60(TB) leukemia = tested on: HL-60(TB) leukemia
HOP-62 NSCLC = tested on: HOP-62 NSCLC
HOP-92 NSCLC = tested on: HOP-92 NSCLC
HS 578T breast = tested on: HS 578T breast
HT29 colon = tested on: HT29 colon
IGROV1 ovarian = tested on: IGROV1 ovarian
K-562 leukemia = tested on: K-562 leukemia
KM12 colon = tested on: KM12 colon
LOX IMVI melanoma = tested on: LOX IMVI melanoma
M14 melanoma = tested on: M14 melanoma
MALME-3M melanoma = tested on: MALME-3M melanoma
MCF7 breast = tested on: MCF7 breast
MDA-MB-231 breast = tested on: MDA-MB-231 breast
MDA-MB-435 = tested on: MDA-MB-435
MOLT-4 leukemia = tested on: MOLT-4 leukemia
NCI-H226 lung = tested on: NCI-H226 lung
NCI-H23 lung = tested on: NCI-H23 lung
NCI-H460 lung = tested on: NCI-H460 lung
NCI-H522 lung = tested on: NCI-H522 lung
NCI/ADR-RES ovarian = tested on: NCI/ADR-RES ovarian
OVCAR-3 ovarian = tested on: OVCAR-3 ovarian
OVCAR-4 ovarian = tested on: OVCAR-4 ovarian
OVCAR-5 ovarian = tested on: OVCAR-5 ovarian
OVCAR-8 ovarian = tested on: OVCAR-8 ovarian
PC-3 prostate = tested on: PC-3 prostate
RPMI-8226 leukemia = tested on: RPMI-8226 leukemia
RXF 393 renal = tested on: RXF 393 renal
SF-268 CNS = tested on: SF-268 CNS
SF-295 CNS = tested on: SF-295 CNS
SF-539 CNS = tested on: SF-539 CNS
SK-MEL-2 melanoma = tested on: SK-MEL-2 melanoma
SK-MEL-28 melanoma = tested on: SK-MEL-28 melanoma
SK-MEL-5 melanoma = tested on: SK-MEL-5 melanoma
SK-OV-3 ovarian = tested on: SK-OV-3 ovarian
SN12C renal = tested on: SN12C renal
SNB-19 CNS = tested on: SNB-19 CNS
SNB-75 CNS = tested on: SNB-75 CNS
SR leukemia = tested on: SR leukemia
SW-620 colon = tested on: SW-620 colon
T-47D breast = tested on: T-47D breast
TK-10 renal = tested on: TK-10 renal
U251 CNS = tested on: U251 CNS
UACC-257 melanoma = tested on: UACC-257 melanoma
UACC-62 melanoma = tested on: UACC-62 melanoma
UO-31 renal = tested on: UO-31 renal

`C#Cc1nc(C2=C(C)C(O)/C(=N/O)C2)cs1` (stereo unspecified) was tested, and the GI50 (786-0 renal) was 3.84 µM, the TGI (786-0 renal) was 14 µM and the GI50 (A498 renal) was 24.1 µM. For the same compound, the TGI (A498 renal) was 50.3 µM, the GI50 (A549 NSCLC) was 35.3 µM and the TGI (A549 NSCLC) was > 100 µM. For the same compound, the GI50 (ACHN renal) was 3.61 µM, the TGI (ACHN renal) was > 100 µM and the GI50 (BT-549 breast) was 19.8 µM. The TGI (BT-549 breast) was 75.5 µM, the GI50 (CAKI-1 renal) was 48.3 µM and the TGI (CAKI-1 renal) was > 100 µM. The GI50 (CCRF-CEM leukemia) was 2.21 µM, the TGI (CCRF-CEM leukemia) was 5.3 µM and the GI50 (COLO 205 colon) was > 100 µM. The TGI (COLO 205 colon) was > 100 µM, the GI50 (DU-145 prostate) was 49.2 µM and the TGI (DU-145 prostate) was > 100 µM. The GI50 (EKVX NSCLC) was > 100 µM, the TGI (EKVX NSCLC) was > 100 µM and the GI50 (HCC-2998 colon) was > 100 µM. For the same compound, the TGI (HCC-2998 colon) was > 100 µM, the GI50 (HCT-116 colon) was 42.2 µM and the TGI (HCT-116 colon) was > 100 µM. The GI50 (HCT-15 colon) was 49 µM, the TGI (HCT-15 colon) was > 100 µM and the GI50 (HL-60(TB) leukemia) was 11.9 µM. For the same compound, the TGI (HL-60(TB) leukemia) was 29 µM, the GI50 (HOP-62 NSCLC) was 94.9 µM and the TGI (HOP-62 NSCLC) was > 100 µM. The GI50 (HOP-92 NSCLC) was 18.1 µM, the TGI (HOP-92 NSCLC) was 34.1 µM and the GI50 (HS 578T breast) was > 100 µM. The TGI (HS 578T breast) was > 100 µM, the GI50 (HT29 colon) was 25.7 µM and the TGI (HT29 colon) was 68.1 µM. The GI50 (IGROV1 ovarian) was 2.97 µM, the TGI (IGROV1 ovarian) was 12.1 µM and the GI50 (K-562 leukemia) was 36.7 µM. For the same compound, the TGI (K-562 leukemia) was > 100 µM, the GI50 (KM12 colon) was > 100 µM and the TGI (KM12 colon) was > 100 µM. The GI50 (LOX IMVI melanoma) was 1.52 µM, the TGI (LOX IMVI melanoma) was 2.95 µM and the GI50 (M14 melanoma) was > 100 µM. The TGI (M14 melanoma) was > 100 µM, the GI50 (MALME-3M melanoma) was 18.4 µM and the TGI (MALME-3M melanoma) was 49.6 µM. The GI50 (MCF7 breast) was 39 µM, the TGI (MCF7 breast) was > 100 µM and the GI50 (MDA-MB-231 breast) was 60.1 µM. The TGI (MDA-MB-231 breast) was > 100 µM, the GI50 (MDA-MB-435) was > 100 µM and the TGI (MDA-MB-435) was > 100 µM. For the same compound, the GI50 (MOLT-4 leukemia) was 15.1 µM, the TGI (MOLT-4 leukemia) was 40.9 µM and the GI50 (NCI-H226 lung) was > 100 µM. The TGI (NCI-H226 lung) was > 100 µM, the GI50 (NCI-H23 lung) was 7.4 µM and the TGI (NCI-H23 lung) was > 100 µM. The GI50 (NCI-H460 lung) was > 100 µM, the TGI (NCI-H460 lung) was > 100 µM and the GI50 (NCI-H522 lung) was 14.1 µM. For the same compound, the TGI (NCI-H522 lung) was 29.1 µM, the GI50 (NCI/ADR-RES ovarian) was 81.5 µM and the TGI (NCI/ADR-RES ovarian) was > 100 µM. For the same compound, the GI50 (OVCAR-3 ovarian) was > 100 µM, the TGI (OVCAR-3 ovarian) was > 100 µM and the GI50 (OVCAR-4 ovarian) was 57.2 µM. For the same compound, the TGI (OVCAR-4 ovarian) was > 100 µM, the GI50 (OVCAR-5 ovarian) was 63.6 µM and the TGI (OVCAR-5 ovarian) was > 100 µM. For the same compound, the GI50 (OVCAR-8 ovarian) was 55.5 µM, the TGI (OVCAR-8 ovarian) was > 100 µM and the GI50 (PC-3 prostate) was 39.1 µM. The TGI (PC-3 prostate) was > 100 µM, the GI50 (RPMI-8226 leukemia) was 5.19 µM and the TGI (RPMI-8226 leukemia) was 21.8 µM. For the same compound, the GI50 (RXF 393 renal) was 19.4 µM, the TGI (RXF 393 renal) was 62.6 µM and the GI50 (SF-268 CNS) was 40.7 µM. For the same compound, the TGI (SF-268 CNS) was > 100 µM, the GI50 (SF-295 CNS) was 12.5 µM and the TGI (SF-295 CNS) was 28.5 µM. The GI50 (SF-539 CNS) was 11.5 µM, the TGI (SF-539 CNS) was 23.6 µM and the GI50 (SK-MEL-2 melanoma) was > 100 µM. The TGI (SK-MEL-2 melanoma) was > 100 µM, the GI50 (SK-MEL-28 melanoma) was 87.8 µM and the TGI (SK-MEL-28 melanoma) was > 100 µM. The GI50 (SK-MEL-5 melanoma) was 54.6 µM, the TGI (SK-MEL-5 melanoma) was > 100 µM and the GI50 (SK-OV-3 ovarian) was 18.8 µM. The TGI (SK-OV-3 ovarian) was 39.3 µM, the GI50 (SN12C renal) was 35 µM and the TGI (SN12C renal) was > 100 µM. The GI50 (SNB-19 CNS) was > 100 µM, the TGI (SNB-19 CNS) was > 100 µM and the GI50 (SNB-75 CNS) was > 100 µM. For the same compound, the TGI (SNB-75 CNS) was > 100 µM, the GI50 (SR leukemia) was 1.91 µM and the TGI (SR leukemia) was 5.31 µM. For the same compound, the GI50 (SW-620 colon) was 79.3 µM, the TGI (SW-620 colon) was > 100 µM and the GI50 (T-47D breast) was 66.8 µM. For the same compound, the TGI (T-47D breast) was > 100 µM, the GI50 (TK-10 renal) was > 100 µM and the TGI (TK-10 renal) was > 100 µM. The GI50 (U251 CNS) was 79.5 µM, the TGI (U251 CNS) was > 100 µM and the GI50 (UACC-257 melanoma) was 57.4 µM. For the same compound, the TGI (UACC-257 melanoma) was > 100 µM, the GI50 (UACC-62 melanoma) was > 100 µM and the TGI (UACC-62 melanoma) was > 100 µM. For the same compound, the GI50 (UO-31 renal) was 1.61 µM and the TGI (UO-31 renal) was 2.98 µM.
